Source: patent US9102636B2, “Analgesic compounds, compositions, and uses thereof” (Galleon Pharmaceuticals, Inc., priority 2010, dated 2015)
Several values for one entry are separate records, joined by “and”; a condition that tells them apart may be missing. Equal entries are not always repeated.

Experiments:
[1] = Oral pharmacokinetics (Tmax) in rats; details: rat, in vivo, given orally
PC12 cells = test: Inhibition of peroxynitrite (SIN-1) mediated cytotoxicity, ATPlite; assay type: cell-based; details: Rattus norvegicus, PC-12, SIN-1 overnight, average of two plates
Description: ATPlite is an Adenosine TriPhosphate monitoring system based on firefly luciferase. ATP monitoring was used as a measure of PC12 cell viability, as it is present in all metabolically active cells and its concentration very rapidly declines as cells undergo necrosis and apoptosis. ATPlite is based upon the production of light given off during the reaction of ATP & D-Luciferin in the presence of Luciferase. The emitted light is proportional to the ATP concentration. Compounds of the invention were assessed for their ability to inhibit SIN-1 induced cell toxicity. Inhibitory concentrations, IC50 values, were calculated by testing compounds of the invention at various concentrations and averaging the IC50 of two plates.
All cell work was carried out under the cell culture hood in a sterile environment. […] The cells were counted in the 4 large corner quadrants of the hemacytometer under the inverted microscope at 10× and the average of the 4 quadrants was calculated. Blue cells were not counted as these cells represented non-viable cells. The number of cells present in 1 mL of media was determined using the following equation: cells/mL=(# cells counted/# squares counted)×10^4×dilution factor. […]
On Day 3, 10.25 ml of ATPlite buffer was added to 1 vial of lyophilized substrate solution (ATPlite 1 step luminescence ATP detection Assay system (Perkin Elmer, #6016731)). […]

[2] = system: Carrageenan-induced edema; test: Carrageenan-induced edema (paw volume); assay type: in vivo, rat
Procedure: The effect of Compound 2 in the rat carrageenan model of acute inflammatory pain was evaluated. The intraplantar carrageenan model of acute inflammatory pain in the rat results in behaviors similar to that observed in patients and has been widely used to assess novel pharmacological treatments (Whiteside et al., 2005, J. Pharmacol. Exp. Ther. 314:1234-1240). The objective of this study was to evaluate the ability of Compound 2 to reverse or prevent development of thermal hyperalgesia and edema in the rat carrageenan model of acute inflammatory pain. The positive control was indomethacin (Sigma, St. Louis), and the negative control was vehicle (0.5% methyl cellulose). […] The Hargreaves apparatus was obtained from Ugo Basile, Italy, and the lamba-carrageenan was obtained from Sigma, St. Louis. For this assay, paw withdrawal latency to a thermal stimulus was assessed using a radiant heat source (Ugo Basile, Italy) aimed at the plantar surface of the left hind paw (Hargreaves test). […] Paw volume was measured by displacement of water and assuming a tissue density equal to that of water. Baseline latencies were taken prior to carrageenan administration and re-assessed 4 h later. […] Indomethacin (positive control, 30 mg/kg p.o.) was administered prior to carrageenan and behavior assessed 4 hrs post-carrageenan. […] After induction of anesthesia, the injection site was prepared in a sterile manner and 50 μl of a 2% Jamba-carrageenan was injected. After injection, animals were weighed and allowed to recover before being returned to their home cages. Statistical significance was determined on untransformed data using a two-way analysis of variance (Graphpad Prism, NC). Significant main effects were analyzed further by subsequent Bonferronni post-hoc test. The level of significance was set at p<0.05. Data are shown as mean±S.E.M. (with an asterisk to denote significance as compared to vehicle treated controls).

[3] = system: hyperalgesia following incisional surgery; test: Incisional hyperalgesia, dosing at conclusion of surgery; assay type: in vivo; details: rat; IV at conclusion of surgical incision; FIG. 9
[4] = system: hyperalgesia caused by SIN-1; test: Hyperalgesia caused by SIN-1; assay type: in vivo; details: rat; IV 15 minutes before first SIN-1 (1 mg/kg); FIG. 11
Procedure: Vehicle or compound 2 was given IV 15 minutes before the first administration of SIN-1 (1 mg/kg).

SMILES: CC1(C)SC(Nc2ccccc2O)=N[C@@H]1C(=O)O [Compound 2, (R)-2-(2-hydroxyphenylamino)-thiazoline-5,5-dimethyl-4-carboxylic acid]
- Tmax [1]: 1 h
- IC50 (PC12 cells): 3.7 µM
- Paw volume ([2]; 1 hr post-drug, compound 2 10 mg/kg p.o. 3 hrs after carrageenan (curative), FIG. 21B, 10 mg/kg): 2.6 mL and 2.9 mL and 2.5 mL and 2.7 mL
- Paw volume ([2]; 1 hr post-drug, compound 2 30 mg/kg p.o. 3 hrs after carrageenan (curative), FIG. 21B, 30 mg/kg): 2.4 mL and 2.6 mL and 2.5 mL and 2.9 mL and 2.3 mL
- Paw volume ([2]; Pre-Cg, compound 2 10 mg/kg group, individual rats, FIG. 21B, 10 mg/kg): 1.7 mL (2×) and 1.8 mL (3×) and 1.6 mL
- Paw volume ([2]; Pre-Cg, compound 2 30 mg/kg group, individual rats, FIG. 21B, 30 mg/kg): 1.6 mL (3×) and 1.7 mL (2×) and 1.8 mL and 1.5 mL
- Paw volume ([2]; compound 2 10 mg/kg p.o. preemptive, 4 hr post-drug, individual animals, 10 mg/kg): 3.3 mL and 2.8 mL (2×) and 3.2 mL and 3.1 mL and 2.9 mL
- Paw volume ([2]; compound 2 10 mg/kg p.o. preemptive, Pre-Cg, individual animals, 10 mg/kg): 1.7 mL (2×) and 1.6 mL (3×) and 1.5 mL
- Paw volume ([2]; compound 2 30 mg/kg p.o. preemptive, 4 hr post-drug, individual animals, 30 mg/kg): 2.9 mL and 2.7 mL (4×) and 2.8 mL
- Paw volume ([2]; compound 2 30 mg/kg p.o. preemptive, Pre-Cg, individual animals, 30 mg/kg): 1.7 mL (3×) and 1.6 mL (2×) and 1.8 mL
- carrageenan-induced edema, preemptive (finding in words) ([2]; rat, 10 and 30 mg/kg p.o. 15 minutes prior to carrageenan): did not significantly prevent
- carrageenan-induced edema, curative (finding in words) ([2]; rat, p.o. 3 hours post-carrageenan, significant at 30 mg/kg, 30 mg/kg): significantly reversed edema
- development of hyperalgesia following incisional surgery [3]: inhibits the development of hyperalgesia following incisional surgery
- hyperalgesia caused by SIN-1 [4]: inhibits hyperalgesia caused by SIN-1
